In EPA's ToxRefDB 2:

Experiments:
[1] = system: rat; settings: Subchronic oral toxicity in rodents, sprague dawley, Feed, dose end: 90 day, group: systemic, systemic / hematology / platelet / platelet + systemic / urinalysis / ketones / ketones
[2] = system: rabbit; settings: Prenatal developmental toxicity study, new zealand white, Oral, Gavage/Intubation, dose end: 19 GD
[3] = system: dog; settings: Chronic toxicity, beagle, Oral, Feed, dose end: 52 week, group: systemic
[4] = system: mouse; settings: Subchronic oral toxicity in rodents, b6c3f1, Feed, dose end: 90 day, group: systemic
[5] = system: mouse; settings: Carcinogenicity, b6c3f1, Oral, Feed, dose end: 78 week, group: systemic
[6] = system: rabbit; settings: Prenatal developmental toxicity study, himalayan, Oral, Gavage/Intubation, dose end: 19 GD
[7] = system: rat; settings: Reproduction/developmental toxicity screening test; wistar; Injection; Intraperitoneal; dose end: 45 PND; group: parental; systemic / organ weight / ovary / nos
[8] = system: mouse; settings: Reproduction/developmental toxicity screening test; cd1; Injection; Intraperitoneal; dose end: 14 day; group: maternal; reproductive / reproductive performance / fertility / fertility + reproductive / reproductive performance / implantations / implantations + …
[9] = system: rat; settings: Fertility (Segment I), wistar, Injection, Intraperitoneal, dose end: 7 day
[10] = group: developmental, systemic / in life observation / body weight / fetal weight
[11] = group: maternal, reproductive / reproductive performance / aborted / aborted + reproductive / reproductive performance / postimplantation loss / …
[12] = group: maternal, systemic / in life observation / body weight / body weight gain
[13] = systemic / organ weight / liver / relative to body weight
[14] = systemic / organ weight / liver / relative to body weight + systemic / clinical chemistry / alanine aminotransferase (alt/sgpt) / alanine …
[15] = systemic / in life observation / body weight / body weight gain
[16] = systemic / in life observation / body weight / body weight gain + systemic / organ weight / kidney / absolute
[17] = systemic / in life observation / body weight / body weight + systemic / organ weight / brain / nos + systemic / organ weight / kidney / nos
[18] = group: maternal, systemic / in life observation / body weight / body weight gain + systemic / in life observation / food consumption / food consumption
[19] = group: maternal, systemic / in life observation / body weight / body weight gain + systemic / in life observation / food consumption / food consumption + …
[20] = group: maternal, reproductive / reproductive performance / estrous cycle / length
[21] = group: parental, systemic / clinical chemistry / estradiol / estradiol, free + systemic / pathology microscopic / vagina / diestrus

With `COc1cc(OC)nc(NC(=O)NS(=O)(=O)c2ncccc2C(=O)N(C)C)n1` [Nicosulfuron] the LEL [1] was 15 mg/kg/day, the LOAEL [1] was 15 mg/kg/day and the NEL [1] was < 15 mg/kg/day. For the same compound, the NOAEL [1] was < 15 mg/kg/day, the LEL [2, 10] was 100 mg/kg/day and the LOAEL [2, 10] was 1000 mg/kg/day. For the same compound, the NEL [2, 10] was < 100 mg/kg/day, the NOAEL [2, 10] was 500 mg/kg/day and the LOAEL [2, 11] was 500 mg/kg/day. The NOAEL [2, 11] was 100 mg/kg/day, the LEL [2, 12] was 100 mg/kg/day and the NEL [2, 12] was < 100 mg/kg/day.

`O=C(O)c1c(Cl)ccc2cc(Cl)cnc12` [Quinclorac] was tested, and the LEL [3, 13] was 34.5 mg/kg/day, the NEL [3, 13] was < 34.5 mg/kg/day and the LOAEL [3, 14] was 469 mg/kg/day. The NOAEL [3, 14] was 140 mg/kg/day, the LOAEL [4, 15] was 1000 mg/kg/day and the NOAEL [4, 15] was < 1000 mg/kg/day. For the same compound, the LEL [4, 16] was 1000 mg/kg/day, the NEL [4, 16] was < 1000 mg/kg/day and the LOAEL ([5]; systemic / in life observation / body weight / body weight) was 150 mg/kg/day. It also gave an NEL [5, 17] of 37.5 mg/kg/day, an NOAEL [5, 17] of 37.5 mg/kg/day and an LEL ([5]; systemic / in life observation / body weight / body weight + systemic / organ weight / kidney / nos) of 150 mg/kg/day. The LEL [6, 10] was 600 mg/kg/day, the LOAEL [6, 10] was 600 mg/kg/day and the NEL [6, 10] was 200 mg/kg/day. It also gave an NOAEL [6, 10] of 200 mg/kg/day, an LEL [6, 18] of 200 mg/kg/day and an LOAEL [6, 18] of 200 mg/kg/day. It also gave an NEL [6, 19] of 70 mg/kg/day and an NOAEL [6, 19] of 70 mg/kg/day.

For `CC(=O)S[C@@H]1CC2=CC(=O)CC[C@]2(C)[C@H]2CC[C@@]3(C)[C@@H](CC[C@@]34CCC(=O)O4)[C@H]12` [Spironolactone], the LEL [7] was 100 mg/kg/day, the LOAEL [7] was > 100 mg/kg/day and the NEL [7] was < 100 mg/kg/day. The NOAEL [7] was ≥ 100 mg/kg/day, the LEL [8] was 100 mg/kg/day and the LOAEL [8] was > 100 mg/kg/day. The NEL [8] was < 100 mg/kg/day, the NOAEL [8] was ≥ 100 mg/kg/day and the LEL [9, 20] was 100 mg/kg/day. For the same compound, the LOAEL [9, 20] was > 100 mg/kg/day, the NEL [9, 20] was < 100 mg/kg/day and the NOAEL [9, 20] was ≥ 100 mg/kg/day. For the same compound, the LEL [9, 21] was 100 mg/kg/day, the LOAEL [9, 21] was > 100 mg/kg/day and the NEL [9, 21] was < 100 mg/kg/day. The NOAEL [9, 21] was ≥ 100 mg/kg/day.
